Legend:
[1] = system: chick chorioallantoic membrane (CAM); assay: Angiogenesis assay in the chick chorioallantoic membrane (CAM) model, vessel branch point count; format: in vivo; conditions: for induction of angiogenic response (vessel branch points): within a defined concentration range
Experimental: FIG. 1 depicts induction of angiogenesis by soluble L1-fusion protein containing the fourth, fifth, and sixth Ig-like domains of L1 (Ig 4-6). a. GST fusion proteins were made covering the entire extra-cellular domain of L1 and consisted of immunoglobulin like domains 1 through 3 (Ig1 3), immunoglobulin like domains 4 through 6 (Ig4-6), and FN type III like domains 1-5 (FN1 5). b. The L1-fusion proteins (Ig 1-3, Ig 4-6 or FN1-5) were tested for their ability to induce an angiogenic response in the chick chorioallantoic membrane (CAM) model. Filter discs each received 0.5 mg of Ig4-6 fusion protein ([…]) or equimolar amounts of the Ig 1-3, or FN1-5 fusion proteins. Negative or positive control groups received filter discs saturated with media alone or with bFGF respectively. Angiogenesis was quantified by counting the number of vessel branch points within the area of membrane immediately beneath the disc. The number of vessel branch points counted in the control group receiving media alone has been subtracted. Treatment groups consisted of a minimum of six embryos and experiments were performed on three separate occasions. c. […] Results obtained using bFGF or media alone are shown for comparison. Note that fine and highly branched angiogenic vessels can be distinguished from large preexisting vessels. Dotted lines delineate the area of the filter disc placed on the membrane. Excised membrane beneath and adjacent to the filter discs were photographed using an Olympus SZH10 Research Stereo microscope at 15×.
FIG. 2 depicts induction of angiogenesis by a L1-RGD peptide and by a function blocking antibody to β1 integrins. a. The L1 peptide PSITWRGDGRDLQEL or the mutant L1 peptide PSITWRADGRDLQEL were tested for their ability to induce an angiogenic response in the chick CAM model. b. Function blocking antibodies to chick avβ3 (LM609) or to chick β1-intgrins (CSAT) were also tested. […] Angiogenesis was quantified by counting the number of vessel branch points within the area of membrane immediately beneath the disc. The number of vessel branch points counted in the control group receiving media alone has been subtracted. c. […]
FIG. 3 depicts induction of angiogenesis by L1 cleavage products. a. […] Untreated and digested L1 (trypsin free) was then analyzed by SDS polyacrylamide gel electrophoresis (5-15% gradient). b. Sites of trypsin cleavage were determined by amino terminal sequencing and are shown schematically. c. […] Angiogenesis was quantified by counting the number of vessel branch points within the area of membrane immediately beneath the disc.
Angiogenesis assay. Angiogenesis was assessed using the chick chorioallantoic membrane (CAM) model which has been extensively described^54. […]

[2] = system: integrin; assay: Integrin-binding activity of mutant L1 peptide (data not shown)
[3] = system: HDMEC or ECV304 avb3(−) cell adhesion to fibronectin; assay: Cell adhesion to fibronectin (data not shown); format: cell-based; set-up: effect on cell adhesion to fibronectin: dose or concentration left out as unconfirmed
Experimental: The extent to which the L1 polypeptide or L1-RGD peptide alters adhesivity between endothelial cells, or endothelial cells and the subendothelial matrix remains to be determined. However, at a high molarity (250 uM) the L1-RGD peptide abrogated 30-40% of HDMEC or ECV304 avb3(−) cell adhesion to fibronectin (data not shown). […] This would certainly be consistent with the fact that both αvβ3 and αvβ1 can promote cell adhesion or spreading on fibronectin^37-38.

[4] = target: T1, αvβ1 expressed by endothelial cells (Homo sapiens, UniProt P05556+P06756); conditions: reference 18; cited from earlier work
T1 construct: αvβ1 expressed by endothelial cells; endogenous in cells
T1 sequence (P06756 31-889 limits assumed): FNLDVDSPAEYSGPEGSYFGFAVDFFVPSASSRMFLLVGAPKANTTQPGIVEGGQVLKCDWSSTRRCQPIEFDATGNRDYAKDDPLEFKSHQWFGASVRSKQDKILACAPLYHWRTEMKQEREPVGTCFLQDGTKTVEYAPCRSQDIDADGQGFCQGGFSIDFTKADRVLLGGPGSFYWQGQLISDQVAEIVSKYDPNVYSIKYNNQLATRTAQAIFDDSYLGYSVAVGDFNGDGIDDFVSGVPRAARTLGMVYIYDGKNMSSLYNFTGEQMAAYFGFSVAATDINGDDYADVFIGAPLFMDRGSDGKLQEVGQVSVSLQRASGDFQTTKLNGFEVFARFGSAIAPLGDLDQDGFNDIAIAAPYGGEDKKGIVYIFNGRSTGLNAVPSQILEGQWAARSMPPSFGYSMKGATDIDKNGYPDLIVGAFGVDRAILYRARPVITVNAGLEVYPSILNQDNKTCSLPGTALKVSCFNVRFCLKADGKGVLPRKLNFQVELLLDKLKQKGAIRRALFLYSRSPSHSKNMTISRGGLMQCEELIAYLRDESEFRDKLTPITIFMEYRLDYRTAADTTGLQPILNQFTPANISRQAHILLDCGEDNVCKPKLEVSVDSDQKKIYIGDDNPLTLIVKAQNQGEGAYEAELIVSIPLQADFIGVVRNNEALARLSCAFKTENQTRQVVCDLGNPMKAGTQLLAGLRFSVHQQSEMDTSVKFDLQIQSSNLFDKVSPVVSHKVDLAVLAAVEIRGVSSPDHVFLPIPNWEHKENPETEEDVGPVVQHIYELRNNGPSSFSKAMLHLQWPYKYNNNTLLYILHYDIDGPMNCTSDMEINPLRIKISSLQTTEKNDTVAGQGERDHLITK
T1 sequence (P06756 891-1048 limits assumed): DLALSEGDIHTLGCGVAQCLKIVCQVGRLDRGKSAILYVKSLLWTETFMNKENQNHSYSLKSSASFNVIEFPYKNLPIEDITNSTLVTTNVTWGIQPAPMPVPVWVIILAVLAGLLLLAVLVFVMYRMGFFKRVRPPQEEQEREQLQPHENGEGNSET
T1 sequence (P05556 21-798): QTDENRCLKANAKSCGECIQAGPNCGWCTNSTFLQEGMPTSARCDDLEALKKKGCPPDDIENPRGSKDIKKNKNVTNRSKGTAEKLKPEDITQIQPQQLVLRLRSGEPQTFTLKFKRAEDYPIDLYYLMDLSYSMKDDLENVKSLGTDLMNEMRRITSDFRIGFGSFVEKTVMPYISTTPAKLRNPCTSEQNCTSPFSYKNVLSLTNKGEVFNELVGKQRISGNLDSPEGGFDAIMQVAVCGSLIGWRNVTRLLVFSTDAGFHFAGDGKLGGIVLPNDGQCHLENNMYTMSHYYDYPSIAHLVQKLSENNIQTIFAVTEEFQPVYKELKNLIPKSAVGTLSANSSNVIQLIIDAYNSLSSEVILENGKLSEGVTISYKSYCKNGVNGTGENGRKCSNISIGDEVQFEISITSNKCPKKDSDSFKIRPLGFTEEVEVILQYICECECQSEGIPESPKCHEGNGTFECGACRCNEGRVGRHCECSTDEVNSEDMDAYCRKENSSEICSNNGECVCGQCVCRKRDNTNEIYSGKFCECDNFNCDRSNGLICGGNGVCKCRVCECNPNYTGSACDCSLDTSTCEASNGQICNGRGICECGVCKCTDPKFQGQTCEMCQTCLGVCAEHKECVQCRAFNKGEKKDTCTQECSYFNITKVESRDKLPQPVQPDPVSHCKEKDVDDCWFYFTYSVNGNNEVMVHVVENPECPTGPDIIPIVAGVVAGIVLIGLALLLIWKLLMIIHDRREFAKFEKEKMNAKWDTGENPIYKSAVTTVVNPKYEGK

integrin-binding activity [2]	Sequence	angiogenic activity compared with an equivalent concentration of the wildtype peptide ([1]; L1 peptides, 0.01-5 mg/disc)	induction of angiogenic response (vessel branch points) ([1]; L1 peptides, 0.01-5 mg/disc)	angiogenic response at high concentration ([1]; high concentration of peptide or antibody)	cell adhesion to fibronectin abrogated ([3]; 250 uM peptide, HDMEC or ECV304 avb3(−) cells)	effect on cell adhesion to fibronectin ([3]; lower proangiogenic concentrations)	recognition by αvβ1 [4]
retained some integrin-binding activity	PSITWRADGRDLQEL [15-mer L1 peptide containing the mutation RGD to RAD; control peptide]	significantly less proangiogenic	some angiogenic activity				
	PSITWRGDGRDLQEL [L1-RGD peptide]		proangiogenic	not effective	30-40%	did not overtly prevent adhesion	recognized by αvβ1
